Tests used:
[1] = Size and polydispersity index of nanoparticles comprising compounds of the disclosure; assay type: physicochemical; details: compound:DSPC:cholesterol:PEG 2 50:10:38:2 mol %
Source text: Lipid nanoparticles (e.g., empty LNPs or loaded LNPs) may be characterized by a variety of methods. For example, microscopy (e.g., transmission electron microscopy or scanning electron microscopy) may be used to examine the morphology and size distribution of a nanoparticle composition. Dynamic light scattering or potentiometry (e.g., potentiometric titrations) may be used to measure zeta potentials. Dynamic light scattering may also be utilized to determine particle sizes. Instruments such as the Zetasizer Nano ZS (Malvern Instruments Ltd, Malvern, Worcestershire, UK) may also be used to measure multiple characteristics of a nanoparticle composition, such as particle size, polydispersity index, and zeta potential.
(§1) Nanoparticle compositions including a therapeutic and/or prophylactic can be optimized according to the selection of a compound according to Formula (I), (I-1), (A), (A-1), (A-1a), or (A-1b), the selection of additional lipids, the amount of each lipid in the lipid component, and the wt:wt ratio of the lipid component to the therapeutic and/or prophylactic. Nanoparticle compositions including DSPC as a phospholipid, cholesterol as a structural lipid, PEG 2 as a PEG lipid, and a compound according to Formula (I), (I-1), (A), (A-1), (A-1a), or (A-1b) were prepared. The ratios of the lipids were 50:10:38:2 mol % for the lipid according to Formula (I), (I-1), (A), (A-1), (A-1a), or (A-1b):DSPC:cholesterol:PEG 2. […]

[2] = Encapsulation efficiency (% EE), ribogreen; assay type: physicochemical; details: nanoparticles, compound:DSPC:cholesterol:PEG 2 50:10:38:2 mol %
Source text: The efficiency of encapsulation of a therapeutic and/or prophylactic describes the amount of therapeutic and/or prophylactic that is encapsulated or otherwise associated with a lipid nanoparticle (e.g., an empty LNP or a loaded LNP) after preparation, relative to the initial amount provided. The encapsulation efficiency is desirably high (e.g., close to 100%). The encapsulation efficiency may be measured, for example, by comparing the amount of therapeutic and/or prophylactic in a solution containing the lipid nanoparticle (e.g., an empty LNP or a loaded LNP) before and after breaking up the lipid nanoparticle (e.g., an empty LNP or a loaded LNP) with one or more organic solvents or detergents. Fluorescence may be used to measure the amount of free therapeutic and/or prophylactic (e.g., RNA) in a solution.
as §1

[3] = Apparent LNP pKa by 2-(p-toluidino)-6-napthalene sulfonic acid (TNS) assay; assay type: physicochemical; details: pH at half of maximum fluorescence
[4] = Heparin-sepharose binding of nanoparticles
hEPO mRNA = assay: hEPO expression in CD1-mice after intravenous administration of nanoparticles; assay type: in vivo; details: 6 h after intravenous administration, mRNA dose 0.5 mg/kg, N:P 3.4, compound:DSPC:cholesterol:PEG 2 50:10:38:2
Experimental: The expression of hEPO mRNA in CD1-mice was measured 6 h after intravenous administration of nanoparticles comprising a compound of the disclosure, DSPC, cholesterol, and PEG 2 in a ratio of 50:10:38:2. […] Each composition was dosed to 8 animals at an mRNA dose of 0.5 mg/kg.

[5] = Surface hydrophobicity by Generalized Polarization by Laurdan (GPL); assay type: physicochemical; details: normalized Generalized Polarization by Laurdan; higher N-GP = less polar surface
Source text: Nanoparticle compositions including a therapeutic and/or prophylactic can be optimized according to the selection of a compound according to Formula (I), (I-1), (A), (A-1), (A-1a), or (A-1b), the selection of additional lipids, the amount of each lipid in the lipid component, and the wt:wt ratio of the lipid component to the therapeutic and/or prophylactic. Nanoparticle compositions including DSPC as a phospholipid, cholesterol as a structural lipid, PEG 2 as a PEG lipid, and a compound according to Formula (I), (I-1), (A), (A-1), (A-1a), or (A-1b) were prepared. The ratios of the lipids were 50:10:38:2 mol % for the lipid according to Formula (I), (I-1), (A), (A-1), (A-1a), or (A-1b):DSPC:cholesterol:PEG 2.
Laurdan, a fluorescent aminonaphthalene ketone lipid, was post-inserted into the nanoparticle surface and the fluorescence spectrum of Laurdan was collected to determine the normalized Generalized Polarization (N-GP). Higher N-GP indicates a less polar surface.

PDI [1]	Size (nm) [1]	% EE (ribogreen) [2]	LogIC50 (pKa) [3]	Relative % Area Bound by LNP [4]	Average N-GP [5]	Structure (SMILES)	Avg. [hEPO] mIU/mL (hEPO mRNA)
0.139	78.9 nm	85.0%	6.13	1.43%	–	CCCCCCCCC(CC)OC(=O)CCCCCCCN(CCCCCCCC(=O)OC(CCCCCCCC)CCCCCCCC)CCCNC(=O)C(=O)NC (stereo not drawn) [Compound 12, Heptadecan-9-yl 8-((3-(2-(methylamino)-2-oxoacetamido)propyl)(8-oxo-8-(undecan-3-yloxy)octyl)amino)octanoate]	2.29E+05 mIU/mL
0.141	62.5 nm	99.4%	7.59	50.19%	–	CCCCCCCCC(CC)OC(=O)CCCCCCCN(CCCCCCCC(=O)OC(CCCCCCCC)CCCCCCCC)CCCNc1cc[nH]c(=O)n1 (stereo not drawn) [Compound 21, Heptadecan-9-yl 8-((3-((2-oxo-1,2-dihydropyrimidin-4-yl)amino)propyl)(8-oxo-8-(undecan-3-yloxy)octyl)amino)octanoate]	7.04E+04 mIU/mL
0.141	81.8 nm	98.5%	6.85	31.46%	0.655	CCCCCCCCC(CC)OC(=O)CCCCCCCN(CCCCCCCC(=O)OC(CCCCCCCC)CCCCCCCC)CCCNC1=CC(=O)NC1 (stereo not drawn) [Compound 45, Heptadecan-9-yl 8-((3-((5-oxo-2,5-dihydro-1H-pyrrol-3-yl)amino)propyl)(8-oxo-8-(undecan-3-yloxy)octyl)amino)octanoate]	1.15E+05 mIU/mL
0.233	124.3 nm	28.3%	6.80	3.99%	0.890	CCCCCCCCC(CC)OC(=O)CCCCCCCN(CCCCCCCC(=O)OC(CCCCCCCC)CCCCCCCC)CCCNC(=O)c1ccc2c(c1)B(O)OC2 (stereo not drawn) [Compound 62, Heptadecan-9-yl 8-((3-(1-hydroxy-1,3-dihydrobenzo[c][1,2]oxaborole-6-carboxamido)propyl)(8-oxo-8-(undecan-3-yloxy)octyl)amino)octanoate]	1.60E+05 mIU/mL
0.273	126.4 nm	37.7%	6.41	6.25%	0.866	CCCCCCCCC(CC)OC(=O)CCCCCCCN(CCCCCCCC(=O)OC(CCCCCCCC)CCCCCCCC)CCCNS(=O)(=O)CCOCc1ccccc1 (stereo not drawn) [Compound 63, Heptadecan-9-yl 8-((3-((2-(benzyloxy)ethyl)sulfonamido)propyl)(8-oxo-8-(undecan-3-yloxy)octyl)amino)octanoate]	1.90E+05 mIU/mL
0.22	53.7 nm	98.2%	–	–	–	CCCCCCCCC(CC)OC(=O)CCCCCCCN(CCCCCCCC(=O)OC(CCCCCCCC)CCCCCCCC)CCCN/C=C1/NC(=O)NC1=O (stereo not drawn) [Compound 52]	–
0.178	80.8 nm	98.4%	7.23	37.96%	–	CCCCCCCCC(CC)OC(=O)CCCCCCCN(CCCCCCCC(=O)OC(CCCCCCCC)CCCCCCCC)CCCNC(=O)CC(=O)NC (stereo not drawn) [Compound 17, Heptadecan-9-yl 8-({3-[2-(methylcarbamoyl)acetamido]propyl}[8-oxo-8-(undecan-3-yloxy)octyl]amino)octanoate]	7.95E+04 mIU/mL
0.104	60.8 nm	95.1%	7.65	21.86%	–	CCCCCCCCC(CC)OC(=O)CCCCCCCN(CCCCCCCC(=O)OC(CCCCCCCC)CCCCCCCC)CCCNC1=NS(=O)(=O)N=C1NC (stereo not drawn) [Compound 2, Heptadecan-9-yl 8-((3-((4-(methylamino)-1,1-dioxido-1,2,5-thiadiazol-3-yl)amino)propyl)(8-oxo-8-(undecan-3-yloxy)octyl)amino)octanoate]	6.57E+04 mIU/mL
0.196	54.3 nm	−11.2%	6.41	0%	–	CCCCCCCCC(CC)OC(=O)CCCCCCCN(CCCCCCCC(=O)OC(CCCCCCCC)CCCCCCCC)CCCn1ccc2cc([N+](=O)[O-])ccc21 (stereo not drawn) [Compound 48, Heptadecan-9-yl 8-((3-(5-nitro-1H-indol-1-yl)propyl)(8-oxo-8-(undecan-3-yloxy)octyl)amino)octanoate]	0 mIU/mL
0.18	69.8 nm	98.1%	6.09	0%	–	CCCCCCCCC(CC)OC(=O)CCCCCCCN(CCCCCCCC(=O)OC(CCCCCCCC)CCCCCCCC)CCCNc1noc(N)n1 (stereo not drawn) [Compound 50, Heptadecan-9-yl 8-((3-((5-amino-1,2,4-oxadiazol-3-yl)amino)propyl)(8-oxo-8-(undecan-3-yloxy)octyl)amino)octanoate]	1.91E+05 mIU/mL
0.199	63.5 nm	98.9%	6.68	6.45%	–	CCCCCCCCC(CC)OC(=O)CCCCCCCN(CCCCCCCC(=O)OC(CCCCCCCC)CCCCCCCC)CCCNc1nc2[nH]cnc2c(=O)[nH]1 (stereo not drawn) [Compound 29, Heptadecan-9-yl 8-((3-((6-oxo-6,9-dihydro-1H-purin-2-yl)amino)propyl)(8-oxo-8-(undecan-3-yloxy)octyl)amino)octanoate]	8.93E+04 mIU/mL
0.088	68.4 nm	97.9%	6.00	0%	–	CCCCCCCCC(CC)OC(=O)CCCCCCCN(CCCCCCCC(=O)OC(CCCCCCCC)CCCCCCCC)CCCNc1c(Cl)c(=O)n(C)n(C)c1=O (stereo not drawn) [Compound 6, Heptadecan-9-yl 8-((3-((5-chloro-1,2-dimethyl-3,6-dioxo-1,2,3,6-tetrahydropyridazin-4-yl)amino)propyl)(8-oxo-8-(undecan-3-yloxy)octyl)amino)octanoate]	8.12E+04 mIU/mL
0.114	60.8 nm	98.8%	6.56	0%	–	CCCCCCCCC(CC)OC(=O)CCCCCCCN(CCCCCCCC(=O)OC(CCCCCCCC)CCCCCCCC)CCCNc1cc(=O)[nH]c(=O)[nH]1 (stereo not drawn) [Compound 24, Heptadecan-9-yl 8-((3-((2,6-dioxo-1,2,3,6-tetrahydropyrimidin-4-yl)amino)propyl)(8-oxo-8-(undecan-3-yloxy)octyl)amino)octanoate]	2.05E+05 mIU/mL
0.167	91.2 nm	98.9%	7.20	69.04%	–	CCCCCCCCC(CC)OC(=O)CCCCCCCN(CCCCCCCC(=O)OC(CCCCCCCC)CCCCCCCC)CCCNC(C(N)=O)C(N)=O (stereo not drawn) [Compound 14, Heptadecan-9-yl 8-((3-((1,3-diamino-1,3-dioxopropan-2-yl)amino)propyl)(8-oxo-8-(undecan-3-yloxy)octyl)amino)octanoate]	6.20E+04 mIU/mL

Reference: patent US20230000773A1, “NOVEL HEADGROUP LIPID COMPOUNDS AND COMPOSITIONS FOR INTRACELLULAR DELIVERY OF THERAPEUTIC AGENTS” (ModernaTX, Inc., priority 2019, published 2023)
